Measurements: US10479810B2, “Crystal form of tenofovir alafenamide salt, preparation method and use thereof” (SHANGHAI BEGREAT PHARMATECH, priority 2016, dated 2019)
Where two headings read alike, the source gives them in different places.

Conditions: for TAF total degradation impurities %: mixtures with emtricitabine at weight ratio about 1:15, HPLC
Experimental: In this patent, TAF fumarate crystal form I (prepared according to the method of WO2013025788A1), TAF fumarate crystal form II, TAF fumarate crystal form A and TAF fumarate crystal form B and emtricitabine are compared. The mixture was mixed at a weight ratio of about 1:15, placed at 40° C. and a relative humidity of 75%, and placed open for 21 days. The degradation of TAF was analyzed by HPLC at 0 days and 21 day.

| Compound | chemical compatibility of TAF with emtricitabine (compared with TAF hemifumarate crystal form I in combination with emtricitabine) | TAF total degradation impurities % (0 day) | TAF total degradation impurities % (21 day, 40° C., relative humidity 75%, placed open) |
| --- | --- | --- | --- |
| CC(C)OC(=O)[C@H](C)N[P@](=O)(CO[C@H](C)Cn1cnc2c(N)ncnc21)Oc1ccccc1.O=C(O)/C=C/C(=O)O [TAF fumarate Form II, 9-[(R)-2-[[(S)-[[(S)-1-(isopropoxycarbonyl)ethyl]amino]phenoxyphosphinyl]methoxy]propyl]adenine fumarate] | significantly improve | – | – |
| Tenofovir alafenamide hemifumarate [TAF fumarate Form I] | – | 0.1% | 0.9% |
